From patent US12630632B2, “Bispecific HER2 and CD3 binding molecules” (Memorial Sloan Kettering Cancer Center, priority 2017, dated 2026)
“Also recorded” adds a separate entry of the source.

Key:
SCCHN cell line PCI-30 = assay: Cell proliferation assay (WST-8); type: cell-based, human; conditions: 10 nM kinase inhibitors, 10 μg/mL antibodies
Experimental: (§1) Cell proliferation was determined using an ELISA plate reader and the WST-8 kit (Dojindo technologies) following the manufacturer's instructions and using the formula: % survival rate=(Sample-Background)/(Negative control-Background). Lapatinib (MSKCC pharmacy) was ground using a mortar and pestle and suspended in DMSO as previously described. To determine statistical significance, the results were analyzed using one-way ANOVA using Prism 6.0.
(§2) For cell proliferation assays, 5,000 tumor cells were plated using RPMI-1640 supplemented with 10% FBS in a 96 well plate for 36 hours before being treated with lapatinib or the antibodies at the specified concentrations. Cell proliferation was determined using an ELISA plate reader and the WST-8 kit (Dojindo technologies) following the manufacturer's instructions and using the formula: % survival rate=(Sample-Background)/(Negative control-Background). Lapatinib (Memorial Sloan Kettering Cancer Center pharmacy) was ground using a mortar and pestle and suspended in DMSO as previously described (Chen et al., 2012, Molecular cancer therapeutics 11:660-669). To determine statistical significance, the results were analyzed using one-way ANOVA using Prism 6.0.
(§3) For tumor cell proliferation, 5,000 tumor cells were plated using RPMI-1640 supplemented with 10%, fetal bovine serum (“FBS”) in a 96 well plate for 36 hours before being treated with—kinase inhibitors or the antibodies at the specified concentration. Cell proliferation was determined using the cell counting WST-8 kit (Dojindo technologies) following the manufacturer's instructions and using the formula: % survival rate=(Sample-Background)(Negative control-Background). Lapatinib was ground using a mortar and pestle and suspended in DMSO as previously described (Chen et al., Molecular cancer therapeutics 2012; 11:660-9). To determine statistical significance, the results were analyzed using one-way ANOVA using Prism 6.0.

[1] = system: osteosarcoma cell line U2OS; assay: Cell proliferation assay (WST-8); type: cell-based, human; conditions: 10 nM kinase inhibitors, 10 μg/mL antibodies
Experimental: as §1, §2, §3

[2] = system: cervical carcinoma HeLa cells; assay: Cell proliferation assay (WST-8); type: cell-based, human; conditions: 10 nM kinase inhibitors, 10 μg/mL antibodies
Experimental: as §1, §2, §3

[3] = system: HER2(+) SCCHN PCI-13 cells; assay: Blocking of HER2-BsAb T-cell cytotoxicity by trastuzumab or anti-CD3; type: cell-based, human; conditions: for effect of blocking antibody on HER2-BsAb induced T cell cytotoxicity: HER2-positive cells pre-incubated with blocking antibody (Examples 1, 2)
Experimental: (§4) The ^51Cr release assay was performed with effector T cells cultured in vitro in the presence of anti-CD3 and anti-CD28 for about 14 days. All target tumor cells were harvested with 2 mM EDTA in PBS, labeled with ^51Cr (Amersham, Arlington Height, IL) at 100 μCi/106 cells at 37° C. for 1 h. 5000 target cells/well were mixed with 50,000 effector cells (E:T=10:1) and BsAb antibodies in 96-well polystyrene round-bottom plates (BD Biosciences) to a final volume of 250 μl/well. The plates were incubated at 37° C. for 4 h. The released ^51Cr in supernatant was counted in a γ-counter (Packed Instrument, Downers Grove, IL). Percentage of specific release was calculated using the formula: (experimental cpm−background cpm)/(total cpm−background cpm)×100%, where cpm represented counts per minute of ^51Cr released. Total release was assessed by lysis with 10% SDS (Sigma, St Louis, Mo), and background release was measured in the absence of effector cells. EC50 was calculated using SigmaPlot software.

naïve T cells = assay: T cell proliferation (WST-8); type: cell-based, human; conditions: 67 nM antibody, 6 days
Experimental: For T cell proliferation, naïve T cells were purified from human PBMC using Pan T cell isolation kit (Miltenyi Biotec). 2×10^5 purified T cells were mixed with different antibodies in 96-well cell culture plate to a final volume of 250 μl/well. T cells were cultured and maintained in RPMI-1640 supplemented with 10% FBS in 37° C. for 6 days. T cell proliferation was quantitated using the WST-8 kit as described above.

[4] = system: HCC1954 breast cancer xenograft; assay: s.c. tumor plus i.v. effector cells xenograft model; type: in vivo, DKO mice; conditions: i.v. PBMC 7.5×10^6 once per week for 2 weeks, 100 μg i.v. twice per week for 4 weeks (Example 4)
Description: Three humanized mouse xenograft models were used: (1) intravenous tumor plus intravenous effector cells; (2) subcutaneous tumor plus subcutaneous effector cells; and (3) subcutaneous tumor plus intravenous effector cells. Subcutaneous xenografts were created with 5×10^6 cells suspended in Matrigel (Corning Corp, Tewksbury MA) and implanted in the flank of DKO mice. Effector peripheral blood mononuclear cell (PBMC) cells were purified from buffy coats purchased from the New York Blood Center. Prior to every experimental procedure, PBMCs were analyzed for their percentage of CD3, CD4, CD8 and CD56 cells to ensure consistency. […] Tumor size was measured using (1) hand-held TM900 scanner (Pieira, Brussels, BE); (2) Calipers; or (3) bioluminescence. Bioluminescence imaging was conducted using the Xenogen In Vivo Imaging System (IVIS) 200 (Caliper LifeSciences). Briefly, mice were injected intravenously with 0.1 mL solution of D-luciferin (Gold Biotechnology; 30 mg/mL stock in PBS). […]
Effector PBMC cells and ATCs were prepared as described above. Prior to every experimental procedure, PBMCs and ATCs were analyzed by FACS for their percentage of CD3, CD4, CD8 and CD56 cells to ensure consistency. […] Tumor size was measured using 1) hand-held TM900 scanner (Pieira, Brussels, BE), 2) Calipers, or 3) Bioluminescence. […]

HeLa = assay: T-cell cytotoxicity, 51Cr release assay; type: cell-based, human; conditions: HeLa pre-treated with lapatinib
Experimental: as §4
Cell cytotoxicity was assayed by ^51Cr release as previously described (Xu et al., Cancer immunology research 2015; 3:266-77), and EC50 was calculated using SigmaPlot software. Effector PBMC cells were purified from buffy coats purchased from the New York Blood Center. […]

## CCOc1cc2ncc(C#N)c(Nc3ccc(OCc4ccccn4)c(Cl)c3)c2cc1NC(=O)/C=C/CN(C)C [neratinib]
SCCHN cell line PCI-30
  sensitivity in proliferation assay: resistant
[1]
  sensitivity in proliferation assay: minimal sensitivity; also recorded: resistant
[2]
  sensitivity in proliferation assay: resistant
[2]; listed as Neratinib
  sensitivity in proliferation assay: pan-resistant

## C#Cc1cccc(Nc2ncnc3cc(OCCOC)c(OCCOC)cc23)c1 [erlotinib]
SCCHN cell line PCI-30
  sensitivity in proliferation assay: resistant
[1]
  sensitivity in proliferation assay: minimal sensitivity; also recorded: resistant
[2]
  sensitivity in proliferation assay: resistant
[2]; listed as Erlotinib
  sensitivity in proliferation assay: pan-resistant

## huOKT3: humanized anti-CD3 OKT3 IgG1, bivalent
[3]
  effect of blocking antibody on HER2-BsAb induced T cell cytotoxicity: block
[3]; PCI-13, 0.1 μg/mL HER2-BsAb, 10 μg/mL blocking antibodies
  effect of blocking antibody on HER2-BsAb T-cell cytotoxicity: prevented; also recorded: abrogates
naïve T cells
  T cell proliferation in the absence of tumor targets: robust T cell proliferation

## OKT3: CD3 specific blocking mAb
[3]
  effect of blocking antibody on HER2-BsAb induced T cell cytotoxicity: prevented

## Atezolizumab
[4]
  tumor volume: no effect

## Pembrolizumab
[4]
  tumor volume: no effect

## CS(=O)(=O)CCNCc1ccc(-c2ccc3ncnc(Nc4ccc(OCc5cccc(F)c5)c(Cl)c4)c3c2)o1 [lapatinib]
HeLa
  effect of pretreatment on sensitivity to HER2-BsAb mediated cytotoxicity: enhances
SCCHN cell line PCI-30
  sensitivity in proliferation assay: resistant
[1]
  sensitivity in proliferation assay: resistant
[1]; listed as Lapatinib
  sensitivity in proliferation assay: minimal sensitivity
[2]
  sensitivity in proliferation assay: no effect on cell proliferation; also recorded: resistant
[2]; listed as Lapatinib
  sensitivity in proliferation assay: pan-resistant
